Laboratory results as given in publication PMC8329300, “X-ray crystallography reveals molecular recognition mechanism for sugar binding in a melibiose transporter MelB” (Communications Biology, 2021).

Experiments:
[1] = target: T1, MelBSt D59C (Salmonella typhimurium, UniProt P30878, D59C); assay: [3H]Melibiose transport time course with DW2 intact cells expressing MelBSt D59C; format: cell-based; conditions: 0.4 mM [3H]melibiose
T1 construct: Cys scanning mutagenesis for the full-length MelBSt; expressed in transfected cells; host or cells: E. coli DW2 (melA+, melB-, lacZ-Y-)
Experimental: (§1) Fig. 1 Functional characterizations. a [^3H] Melibiose transport time course with intact cells. E. coli DW2 strain (melB^−, lacZ^−Y^−) expressed with the WT, D59C, or D59A MelBSt mutants were subjected to [^3H]melibiose active transport assay at 0.4 mM and 10 mCi/mmol in the presence of 20 mM or 100 mM NaCl or LiCl by a fast filtration method. Inset, melibiose fermentation assay. Transformants with DW2 strain were plated on MacConkey agar plates containing 30 mM melibiose as the sole carbohydrate source and pH sensor neutral red, and incubated at 37 °C for 16–18 h before imaging. Number of tests = 3, from different batch of cells or duplicate measurements from same batch of sample. b Ligand binding by Trp→dansyl galactoside (D^2G) FRET assay. Purified proteins at 1 μM concentration in 20 mM Tris-HCl, pH 7.5, 100 mM CholCl, 10% glycerol, and 0.03% UDM were subjected to steady-state fluorescence measurements as described in Methods. On the time-trace, 1.8 μL of 1 mM D^2G at 10 μM was added into 180 μL of protein solutions at 1-min point, followed by supplying 10 μL of 5 mM DDMB or 5 mM α-NPG to displace the bound D^2G. For testing Na^+ or Li^+ binding, they are added into the solution before displacement with the second sugar. The structure of DDMB or α-NPG is shown in a chair form, and the carbon positions are labeled. Glycosidic bonds are indicated by arrows. Both are α-galactosides containing a substituent at the anomeric carbon-1. The data were from duplicate measurements.
(§2) The overexpression of MelBSt was carried out in the E. coli DW2 strain (melA^+, melB^−, and lacZ^−Y^−) from a constitutive expression plasmid pK95ΔAH/MelBSt/CHis10[9],[28],[33]. The D59C or D59A mutant with Cys or Ala at the position 59, respectively, was constructed previously[9] or in this study by QuikChange Site-Directed Mutagenesis kit and confirmed by DNA sequencing analysis. E. coli DW2 cells containing a given plasmid were grown in Luria-Bertani (LB) broth (5 g yeast extract and 10 g tryptone per liter with 171 mM NaCl) with 100 mg/L of ampicillin in a 37 °C shaker. The overnight cultures were diluted by 5% with LB broth supplemented with 0.5% glycerol and 100 mg/L of ampicillin, and constitutive overexpression was obtained by shaking at 30 °C for another 5 h.
(§3) E. coli DW2 cells expressing MelBSt were washed with 100 mM KPi, pH 7.5, to remove Na^+ contamination as described previously. The cell pellets were resuspended with the assay buffer (100 mM KPi, pH 7.5, 10 mM MgSO4) and adjusted to A420 of 10 (∼0.7 mg protein/ml). Using a fast filtration, transport time course at 0.4 mM melibiose (at specific activity of 10 mCi/mmol) was carried out in the absence or presence of NaCl or LiCl at 20 mM or 100 mM, respectively, and intracellular melibiose was determined as described previously.

[2] = system: E. coli DW2 strain (melB−, lacZ−Y−); assay: [3H]Melibiose transport time course with DW2 intact cells; format: cell-based, Escherichia coli; set-up: unit not given here; conditions: 0.4 mM [3H]melibiose
Experimental: as §1, §2, §3

T1 sequence (P30878 whole entry D59C): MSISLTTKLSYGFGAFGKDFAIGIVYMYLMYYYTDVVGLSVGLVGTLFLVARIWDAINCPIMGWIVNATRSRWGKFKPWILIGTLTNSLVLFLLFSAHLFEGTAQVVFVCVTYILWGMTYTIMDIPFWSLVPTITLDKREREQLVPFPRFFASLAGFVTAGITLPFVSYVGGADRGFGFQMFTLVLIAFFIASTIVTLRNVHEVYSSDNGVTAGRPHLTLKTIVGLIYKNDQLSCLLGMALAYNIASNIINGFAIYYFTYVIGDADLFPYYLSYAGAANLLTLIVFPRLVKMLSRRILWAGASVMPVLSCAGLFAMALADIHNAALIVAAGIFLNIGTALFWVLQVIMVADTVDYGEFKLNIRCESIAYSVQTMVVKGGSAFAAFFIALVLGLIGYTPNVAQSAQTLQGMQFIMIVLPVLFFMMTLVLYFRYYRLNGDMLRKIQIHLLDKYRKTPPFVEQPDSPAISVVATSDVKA

In the case of `OC[C@H]1O[C@H](OCC2O[C@@H](O)[C@H](O)[C@@H](O)[C@@H]2O)[C@H](O)[C@@H](O)[C@H]1O` (some centres unmarked) [Melibiose], the Melibiose transport ([1]; H+, Time 0.08) is reported as 2.90, the Melibiose transport ([1]; H+, Time 0.17) is reported as 4.95 and the Melibiose transport ([1]; H+, Time 0.50) is reported as 7.21. It also gave a Melibiose transport ([1]; H+, Time 1.00) of 7.87, a Melibiose transport ([1]; H+, Time 2.00) of 9.68 and a Melibiose transport ([1]; H+, Time 5.00) of 7.94. For the same compound, the Melibiose transport ([1]; H+, Time 10.00) was 6.75, the Melibiose transport ([1]; H+, Time 30.00) was 4.22 and the Melibiose transport ([1]; Li+, 20 mM, Time 0.08) was 4.23. For the same compound, the Melibiose transport ([1]; Li+, 20 mM, Time 0.17) was 7.46, the Melibiose transport ([1]; Li+, 20 mM, Time 0.50) was 9.40 and the Melibiose transport ([1]; Li+, 20 mM, Time 1.00) was 8.14. The Melibiose transport ([1]; Li+, 20 mM, Time 2.00) was 8.43, the Melibiose transport ([1]; Li+, 20 mM, Time 5.00) was 9.92 and the Melibiose transport ([1]; Li+, 20 mM, Time 10.00) was 9.02. For the same compound, the Melibiose transport ([1]; Li+, 20 mM, Time 30.00) was 7.58, the Melibiose transport ([1]; Li+, 100 mM, Time 0.08) was 5.34 and the Melibiose transport ([1]; Li+, 100 mM, Time 0.17) was 7.70. For the same compound, the Melibiose transport ([1]; Li+, 100 mM, Time 0.50) was 7.46, the Melibiose transport ([1]; Li+, 100 mM, Time 1.00) was 5.16 and the Melibiose transport ([1]; Li+, 100 mM, Time 2.00) was 7.88. For the same compound, the Melibiose transport ([1]; Li+, 100 mM, Time 5.00) was 5.54, the Melibiose transport ([1]; Li+, 100 mM, Time 10.00) was 7.56 and the Melibiose transport ([1]; Li+, 100 mM, Time 30.00) was 11.83. For the same compound, the Melibiose transport ([1]; Na+, 20 mM, Time 0.08) was 4.91, the Melibiose transport ([1]; Na+, 20 mM, Time 0.17) was 5.04 and the Melibiose transport ([1]; Na+, 20 mM, Time 0.50) was 6.31. It also gave a Melibiose transport ([1]; Na+, 20 mM, Time 1.00) of 7.41, a Melibiose transport ([1]; Na+, 20 mM, Time 2.00) of 16.16 and a Melibiose transport ([1]; Na+, 20 mM, Time 5.00) of 8.09. For the same compound, the Melibiose transport ([1]; Na+, 20 mM, Time 10.00) was 6.24, the Melibiose transport ([1]; Na+, 20 mM, Time 30.00) was 9.30 and the Melibiose transport ([1]; Na+, 100 mM, Time 0.08) was 0.60. It also gave a Melibiose transport ([1]; Na+, 100 mM, Time 0.17) of 4.32, a Melibiose transport ([1]; Na+, 100 mM, Time 0.50) of 10.86 and a Melibiose transport ([1]; Na+, 100 mM, Time 1.00) of 12.92. It also gave a Melibiose transport ([1]; Na+, 100 mM, Time 2.00) of 6.61, a Melibiose transport ([1]; Na+, 100 mM, Time 5.00) of 1.42 and a Melibiose transport ([1]; Na+, 100 mM, Time 10.00) of 5.04. The Melibiose transport ([1]; Na+, 100 mM, Time 30.00) was 9.00, the Melibiose transport ([2]; H+, Time 0.08333) was 5.1051 and the Melibiose transport ([2]; H+, Time 0.16667) was 0.0051. It also gave a Melibiose transport ([2]; H+, Time 0.5) of 5.3907, a Melibiose transport ([2]; H+, Time 1) of 1.8156 and a Melibiose transport ([2]; H+, Time 2) of 6.1659. It also gave a Melibiose transport ([2]; H+, Time 5) of 3.5343, a Melibiose transport ([2]; H+, Time 10) of 0.765 and a Melibiose transport ([2]; H+, Time 30) of 0.4743. For the same compound, the Melibiose transport ([2]; Li+, 20 mM, Time 0.08333) was 4.9419, the Melibiose transport ([2]; Li+, 20 mM, Time 0.16667) was 5.658 and the Melibiose transport ([2]; Li+, 20 mM, Time 0.5) was 3.542. For the same compound, the Melibiose transport ([2]; Li+, 20 mM, Time 1) was 2.349, the Melibiose transport ([2]; Li+, 20 mM, Time 2) was 6.918 and the Melibiose transport ([2]; Li+, 20 mM, Time 5) was 4.664. The Melibiose transport ([2]; Li+, 20 mM, Time 10) was 5.3448, the Melibiose transport ([2]; Li+, 20 mM, Time 30) was 4.1259 and the Melibiose transport ([2]; Li+, 100 mM, Time 0.08333) was 3.0914. The Melibiose transport ([2]; Li+, 100 mM, Time 0.16667) was 1.7168, the Melibiose transport ([2]; Li+, 100 mM, Time 0.5) was 6.0378 and the Melibiose transport ([2]; Li+, 100 mM, Time 1) was 1.9198. For the same compound, the Melibiose transport ([2]; Li+, 100 mM, Time 2) was 3.77, the Melibiose transport ([2]; Li+, 100 mM, Time 5) was 5.9682 and the Melibiose transport ([2]; Li+, 100 mM, Time 10) was 7.743. The Melibiose transport ([2]; Li+, 100 mM, Time 30) was -0.2436, the Melibiose transport ([2]; Na+, 20 mM, Time 0.08333) was 5.1051 and the Melibiose transport ([2]; Na+, 20 mM, Time 0.16667) was 0.0051. It also gave a Melibiose transport ([2]; Na+, 20 mM, Time 0.5) of 5.3907, a Melibiose transport ([2]; Na+, 20 mM, Time 1) of 1.8156 and a Melibiose transport ([2]; Na+, 20 mM, Time 2) of 6.1659. For the same compound, the Melibiose transport ([2]; Na+, 20 mM, Time 5) was 3.5343, the Melibiose transport ([2]; Na+, 20 mM, Time 10) was 0.765 and the Melibiose transport ([2]; Na+, 20 mM, Time 30) was 0.4743. The Melibiose transport ([2]; Na+, 100 mM, Time 0.08333) was 0.1281, the Melibiose transport ([2]; Na+, 100 mM, Time 0.16667) was 1.6531 and the Melibiose transport ([2]; Na+, 100 mM, Time 0.5) was 2.6962. For the same compound, the Melibiose transport ([2]; Na+, 100 mM, Time 1) was 0.671, the Melibiose transport ([2]; Na+, 100 mM, Time 2) was -3.3611 and the Melibiose transport ([2]; Na+, 100 mM, Time 5) was 0.2867. The Melibiose transport ([2]; Na+, 100 mM, Time 10) was 0.0793 and the Melibiose transport ([2]; Na+, 100 mM, Time 30) was -2.3912.
